{"source": "patent US8217049B2", "about": "“Use of type V phosphodiesterase inhibitors in the treatment of exercise induced pulmonary hemorrhage in the equine” (ANOxA Corp., priority 2006, dated 2012)", "key": {"[1]": {"test_system": "exercise induced pulmonary hemorrhage (EIPH); blood in the trachea", "experiment": "Endoscopic EIPH scoring (Pascoe et al. 1985) after maximum exercise, placebo-controlled crossover", "type": "in vivo", "design": "key: 0: Zero indicates an absence of EIPH; 1 to 4 indicated increasing amounts of blood observed endoscopically in the trachea", "conditions": "10 μg/kg of E4021 prior to maximum exercise (>1,000 meters); videoendoscopy about 60 to 90 minutes after exercise; one value per individual horse (Horse 1-8) with previous EIPH; sesquihydrate", "experimental": "(§1) Eight horses with previous evidence of EIPH were enrolled in the study. The candidate horses served as their own control and a predetermined rest period (no maximum exercise events) of one week was adhered to prior to initiation of the protocol. On initiation of the trial the subject horse received, prior to maximum exercise, either a dose of 10 μg/kg of weight of E4021 or a placebo. The eight horses were exercised in training/mock racing conditions at maximum intensity for greater than 1,000 meters followed by endoscopic exam/scoring about 60 to 90 minutes after the exercise event. Following exercise, the horses were examined with videoendoscopy for evidence of blood in the trachea about 60 minutes to 90 minutes after maximum exercise. The endoscope was passed to the level of the bifurcation of the trachea (carina) with images recorded on videotape.\nAn objective scoring system (Pascoe et al. 1985) was used to indicate the presence or absence of EIPH, as well as its severity, if present. […] Scoring was done by the veterinarian conducting the examination, then later by another individual using the recorded examination. […]\nThe E4021 was administered from vials containing 50 mg of E4021/30 ml. […] The Pl score was after placebo intervention and the post Tx Score was recorded after administration of E4021. […]"}, "[2]": {"experiment": "Untoward effects and systemic hemodynamics in the treated horses", "type": "in vivo, horse", "conditions": "eight horses, 10 μg/kg of E4021 prior to maximum exercise", "experimental": "as §1"}}, "note": "Values joined by “and” are separate entries in the source; they are usually repeats but may differ in a detail not shown here. Equal entries are not always repeated.", "data": [{"smiles": "O.O.O.O=C([O-])C1CCN(c2nc(NCc3ccc4c(c3)OCO4)c3cc(Cl)ccc3n2)CC1.O=C([O-])C1CCN(c2nc(NCc3ccc4c(c3)OCO4)c3cc(Cl)ccc3n2)CC1.[Na+].[Na+]", "note": "[E4021]", "values": [{"measurement": "Post Tx (EIPH endoscopic score recorded after administration of E4021)", "setting": "[1]", "result": "0 (3×) and 3 and 1 and 2"}, {"measurement": "Untoward effects", "setting": "[2]", "result": "did not experience any untoward effects"}, {"measurement": "Systemic hemodynamics (e.g. cardiac output, blood pressure)", "setting": "[2]; versus controls", "result": "remained unchanged from controls"}]}]}
